Data set [1] concerns sections of human esophageal squamous cell cancer (SCC). Put plainly: Confocal microscopy of staining of human esophageal squamous cell cancer (SCC) ex vivo. The source says: We observed good co-localization of peptide and antibody binding on merged images, Supplementary Figure 5C. Representative histology (H&E) for SCC is shown, Supplementary Figure 5D. […] Representative histology (H&E) for normal stomach is shown, Supplementary Figure 5H.

Data set [2] is described as follows: Fluorescence spectra of Cy5.5-labeled peptides. It counts as physicochemical. The following applies: 10 μM in PBS, excitation λex = 671 nm. From the text: We synthesized the 12 amino acid sequence SRRPASFRTARE (black) and attached the fluorophore Cy5.5 (red) via a GGGSK linker (blue) on the C-terminus, hereafter SRR^*-Cy5.5, Figure 1A. Cy5.5 was chosen for photostability and high quantum yield in the near-infrared (NIR) spectrum. We used a linker to prevent steric hindrance of the peptide by the dye. We then used a structural model (1EV2), [24] […] This domain is the same in either isoform FGFR2IIIb or FGFR2IIIc. We also used this model to develop a scrambled sequence SPSRERTFRARA for a control, Figure 1C. This peptide was also labeled with Cy5.5 via a GGGSK linker, hereafter SPS^*-Cy5.5. For SPS^*-Cy5.5, we calculated Et = −277.37. […] We purified SRR^*-Cy5.5 and […] to >97% on HPLC, and measured an experimental mass-to-charge (m/z) ratio on mass spectrometry of 2385.31 for both peptides that agreed with the expected value, Supplementary Figure 3.
Figure 1 Peptide specific for FGFR2 Chemical structure is shown for 12 amino acid (aa) peptide sequence (A) SRRPASFRTARE (SRR^*) found to be specific for FGFR2, and (B) scrambled peptide SPSRERTFRARA (SPS^*) used for control. A Cy5.5 fluorophore (red) is attached via a GGGSK linker (blue) to prevent steric hindrance.

Data set [3] relates to QhTERT cells that express FGFR2c. Briefly: Confocal fluorescence microscopy, binding to QhTERT cells that express FGFR2c. The data set is classed as cell-based, human. The source says: (§1) All human esophageal specimens were obtained with written, informed patient consent per approval and guidelines of the University of Michigan Institutional Review Board (IRB). Human non-dysplastic Barrett's esophagus (BE) cells immortalized with hTert (QhTERT) were obtained from the American Type Culture Collection (ATCC) and cultured in keratinocyte-serum free medium containing bovine pituitary extract and human recombinant EGF (ThermoFisher #17005042). QhTERT cells with stable expression of FGFR2b or FGFR2c were provided (DGB). We cultured these cells with keratinocyte-serum free medium containing bovine pituitary extract and human recombinant EGF (ThermoFisher #17005042) and added 1 μg/mL of puromycin-dihydrochloride (Invitrogen #A11138-03). All cells were cultured at 37°C in 5% CO2, and were passaged using 0.25% EDTA containing trypsin (Mediatech Inc). A hemocytometer was used to determine cell number. Peptide synthesis reagents were obtained from either Anaspec or AAPPTEC with the highest grade available (>99% purity) and used without further purification. Solvents and other chemical reagents were obtained from Sigma-Aldrich, unless otherwise stated.
~10^3 QhTERT/wt, QhTERT/FGFR2b, and QhTERT/FGFR2c cells were grown on cover glass to ~80% confluence. The cells were washed with PBS 1X and incubated with 1 μM of either peptide for 10 min at RT. The cells were then washed 3X in PBS, fixed with 4% paraformaldehyde (PFA) for 5 min, washed 1X with PBS, and then mounted on glass slides with ProLong Gold reagent containing DAPI (Invitrogen). Confocal fluorescence images were collected with Cy5.5 and DAPI filters (Leica Inverted SP5X 2-Photon FLIM confocal microscopes) using a 63X oil-immersion objective. Fluorescence intensities from 3 cells in each of 3 independent images were quantified using custom Matlab (Mathworks) software.

The test system is the same in data set [4]. Put plainly: Apparent association time constant by flow cytometry. The data set is classed as binding, human. To be noted: 5 μM, RT, 0 to 30 min. On the procedure: We measured the apparent association time constant of the peptide to QhTERT/FGFR2c cells to assess binding onset. Cells were grown to ~80% confluence in 10 cm dishes, and detached with PBS-based cell dissociation buffer (Invitrogen). Cells (~10^5 were incubated with 5 μM SRR-Cy5.5 at RT for various time intervals ranging from 0 to 30 min. The cells were centrifuged, and washed with cold PBS. Flow cytometry analysis was performed as described above, and the median fluorescence intensity (y) were measured on flow cytometry at different time points (t) using Flowjo software. The rate constant k was calculated by fitting the data to a first order kinetics model, y(t) = Imax[1-exp^(-kt)], where Imax = maximum value using Prism 5.0 software (GraphPad Inc).

Data set [5] relates to sections of human esophagus ex vivo. Briefly: Confocal microscopy of staining of human esophageal specimens ex vivo (SQ, BE, HGD, EAC). The procedure:
Formalin-fixed sections of human esophageal specimens were deparaffinized, and antigen retrieval was performed using standard methods. Briefly, the sections were incubated in xylene for 3 min 3X, washed with 100% ethanol for 2 min 2X, and washed with 95% ethanol for 2 min 2X. Rehydration was performed by washing in dH2O for 5 min 2X. Antigen unmasking was performed by boiling the slides in 10 mM sodium citrate buffer with 0.05% Tween at pH 6.0, and then maintaining at sub-boiling temperature for 15 min. The slides were cooled for 30 min, and the sections were washed in dH2O for 3 min 3X and in PBS for 5 min. Blocking was performed with DAKO protein blocking agent (X0909, DAKO) for 1 hour at RT. The peptides were incubated at a concentration of 1 μM for 10 min at RT. The sections were washed in PBS for 3 min 3X, and incubated with 1:1000 dilution of monoclonal anti-FGFR2 (Abcam, ab58201) overnight at 4°C.
The sections were then washed in PBS for 5 min 3X. A 1:500 dilution of AF488-labeled secondary antibody (goat anti-mouse) was added to each section and incubated for 30 min at RT. The secondary antibody solution was removed by washing with PBS for 5 min 3X. The sections were then mounted with ProLong Gold reagent containing DAPI (Invitrogen). The mean fluorescence intensities from 3 boxes (dimensions of 30×30 μm^2) located completely within the surface epithelium of each specimen were measured. […] Serial sections were processed for routine histology (H&E), and were reviewed by an expert gastrointestinal pathologist (HDA).

Data set [6] has as its system QhTERT wild-type cells. Briefly: Confocal fluorescence microscopy, binding to wild-type QhTERT cells. The following applies: 1 μM peptide, 10 min at RT, 63X. It counts as cell-based, human.
Description: as §1, with “Peptide synthesis reagents were obtained from either Anaspec or AAPPTEC with the highest grade available (>99% purity) and used without further purification. Solvents and other chemical reagents were obtained from Sigma-Aldrich, unless otherwise stated.” left out
~10^3 QhTERT/wt, QhTERT/FGFR2b, and QhTERT/FGFR2c cells were grown on cover glass to ~80% confluence. […] Confocal fluorescence images were collected with Cy5.5 and DAPI filters (Leica Inverted SP5X 2-Photon FLIM confocal microscopes) using a 63X oil-immersion objective. Fluorescence intensities from 3 cells in each of 3 independent images were quantified using custom Matlab (Mathworks) software.

As for SRRPASFRTARE [SRR^*-Cy5.5], the “mean fluorescence intensity, SCC versus normal, SRR*-Cy5.5” value in data set [1] (P=5×10-21, paired two-sided t-test, 3 boxes of 30×30 μm2) is reported as “significantly greater mean fluorescence intensity”. Besides, the “fluorescence intensity / binding, esophageal SCC” value in data set [1] (SCC sections ex vivo, n = 35 patients) is reported as “strong fluorescence intensity”. In addition, the “staining, normal human esophagus” value in data set [1] (normal esophagus, comparison) was “minimal staining”. The “peak emission λem” value in data set [2] is 710 nm. In addition, the “cell surface fluorescence signal / binding” value in data set [3] (1 μM peptide, 10 min at RT, confocal, 63X) is “strong signal”; in data set [6], “minimal signal”. Moreover, the “mean fluorescence intensity versus control SPS^*-Cy5.5” value in data set [3] (compared with wild-type, log-transformed, ANOVA, 3 random cells on each of 3 slides) is recorded as “significantly greater mean fluorescence intensity”. In addition, the “apparent association time constant k” value in data set [4] (median fluorescence intensity by flow cytometry, first order kinetics, representative of 3 independent experiments) was 0.16 min⁻¹. Also, the “time scale for onset of binding” value in data set [4] (from k) was ~ 6.2 min. For the same sequence, the “mean T/B ratio, HGD and EAC versus BE and SQ” value in data set [5] (3 boxes of 30×30 μm^2, n = 28, 33, 22, 17 specimens of SQ, BE, HGD, EAC) was “significantly higher”. Also, the “mean fluorescence intensity, HGD and EAC versus BE” value in data set [5] (ANOVA, 4 means, log-transformed data, 3 boxes of 30×30 μm^2) is on record as “significantly greater mean fluorescence intensity”. In addition, the “fluorescence intensity / staining, Barrett's esophagus (BE)” value in data set [5] (BE, n = 33 specimens, peptide 1 μM, 10 min at RT, antibody 1:1000 overnight at 4°C) was “minimal fluorescence intensity”. In data set [5] (EAC, n = 17 specimens, peptide 1 μM, 10 min at RT, antibody 1:1000 overnight at 4°C), the “fluorescence intensity / staining, esophageal adenocarcinoma (EAC)” value is given as “strong signal”. In addition, the “fluorescence intensity / staining, high-grade dysplasia (HGD)” value in data set [5] (HGD, n = 22 specimens, peptide 1 μM, 10 min at RT, antibody 1:1000 overnight at 4°C) is reported as “strong signal”. Moreover, the “fluorescence intensity / staining, squamous (SQ)” value in data set [5] (SQ, n = 28 specimens, peptide 1 μM, 10 min at RT, antibody 1:1000 overnight at 4°C) is on record as “minimal fluorescence intensity”.

The record behind these values is paper PMC5675618, “Identification and validation of FGFR2 peptide for detection of early Barrett's neoplasia” (Oncotarget, 2017).
